Measurements published in PubChem BioAssay (NCI).
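In this assay, cells in 96-well plates receive the compound at five concentrations for 48 hours. Endpoints are linearly interpolated between the surrounding concentrations. Here, GI50 denotes the concentration required for 50% inhibition of growth. The concentration for full growth arrest is given as TGI.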

What was measured:
Experiment in all cases: NCI anticancer screen, dose series, 48 h
SR leukemia = test system: SR leukemia
DU-145 prostate = test system: DU-145 prostate
K-562 leukemia = test system: K-562 leukemia
MALME-3M melanoma = test system: MALME-3M melanoma
HCC-2998 colon = test system: HCC-2998 colon
SF-268 CNS = test system: SF-268 CNS
MDA-MB-435 = test system: MDA-MB-435
MDA-MB-231 breast = test system: MDA-MB-231 breast
RXF 393 renal = test system: RXF 393 renal
786-0 renal = test system: 786-0 renal
SK-MEL-2 melanoma = test system: SK-MEL-2 melanoma
HOP-62 NSCLC = test system: HOP-62 NSCLC
MCF7 breast = test system: MCF7 breast
CCRF-CEM leukemia = test system: CCRF-CEM leukemia
SF-295 CNS = test system: SF-295 CNS
TK-10 renal = test system: TK-10 renal
OVCAR-5 ovarian = test system: OVCAR-5 ovarian
HCT-15 colon = test system: HCT-15 colon
SK-OV-3 ovarian = test system: SK-OV-3 ovarian
SNB-75 CNS = test system: SNB-75 CNS
A549 NSCLC = test system: A549 NSCLC
HL-60(TB) leukemia = test system: HL-60(TB) leukemia
EKVX NSCLC = test system: EKVX NSCLC
RPMI-8226 leukemia = test system: RPMI-8226 leukemia
ACHN renal = test system: ACHN renal
LOX IMVI melanoma = test system: LOX IMVI melanoma
NCI-H226 lung = test system: NCI-H226 lung
UACC-62 melanoma = test system: UACC-62 melanoma
OVCAR-3 ovarian = test system: OVCAR-3 ovarian
U251 CNS = test system: U251 CNS
SN12C renal = test system: SN12C renal
MOLT-4 leukemia = test system: MOLT-4 leukemia
HS 578T breast = test system: HS 578T breast
UACC-257 melanoma = test system: UACC-257 melanoma
OVCAR-8 ovarian = test system: OVCAR-8 ovarian
OVCAR-4 ovarian = test system: OVCAR-4 ovarian
NCI-H23 lung = test system: NCI-H23 lung
T-47D breast = test system: T-47D breast
IGROV1 ovarian = test system: IGROV1 ovarian
SK-MEL-28 melanoma = test system: SK-MEL-28 melanoma
CAKI-1 renal = test system: CAKI-1 renal
HT29 colon = test system: HT29 colon
NCI-H460 lung = test system: NCI-H460 lung
BT-549 breast = test system: BT-549 breast
SNB-19 CNS = test system: SNB-19 CNS
SK-MEL-5 melanoma = test system: SK-MEL-5 melanoma
UO-31 renal = test system: UO-31 renal
PC-3 prostate = test system: PC-3 prostate
M14 melanoma = test system: M14 melanoma
SF-539 CNS = test system: SF-539 CNS
HOP-92 NSCLC = test system: HOP-92 NSCLC
HCT-116 colon = test system: HCT-116 colon
MDA-MB-468 breast = test system: MDA-MB-468 breast
NCI-H522 lung = test system: NCI-H522 lung
KM12 colon = test system: KM12 colon
COLO 205 colon = test system: COLO 205 colon
A498 renal = test system: A498 renal
SW-620 colon = test system: SW-620 colon

## CC(=O)Oc1ccccc1C(=O)[Se]C(=NC1CCCCC1)NC1CCCCC1
SR leukemia
  GI50: 1960 nM
  TGI: 4710 nM
DU-145 prostate
  GI50: 1790 nM
  TGI: 3280 nM
K-562 leukemia
  GI50: 2090 nM
  TGI: 5210 nM
MALME-3M melanoma
  GI50: 1730 nM
  TGI: 3200 nM
HCC-2998 colon
  GI50: 1720 nM
  TGI: 3120 nM
SF-268 CNS
  GI50: 2330 nM
  TGI: 5680 nM
MDA-MB-435
  GI50: 1790 nM
  TGI: 3330 nM
MDA-MB-231 breast
  GI50: 1850 nM
  TGI: 3580 nM
RXF 393 renal
  GI50: 1670 nM
  TGI: 3040 nM
786-0 renal
  GI50: 1760 nM
  TGI: 3160 nM
SK-MEL-2 melanoma
  GI50: 1640 nM
  TGI: 3150 nM
HOP-62 NSCLC
  GI50: 1700 nM
  TGI: 3360 nM
MCF7 breast
  GI50: 1820 nM
  TGI: 3400 nM
CCRF-CEM leukemia
  GI50: 2030 nM
  TGI: 5050 nM
SF-295 CNS
  GI50: 1610 nM
  TGI: 3160 nM
TK-10 renal
  GI50: 1640 nM
  TGI: 3030 nM
OVCAR-5 ovarian
  GI50: 1690 nM
  TGI: 3230 nM
HCT-15 colon
  GI50: 1780 nM
  TGI: 3560 nM
SK-OV-3 ovarian
  GI50: 1690 nM
  TGI: 3180 nM
SNB-75 CNS
  GI50: 1370 nM
  TGI: 2780 nM
A549 NSCLC
  GI50: 3010 nM
  TGI: 10600 nM
HL-60(TB) leukemia
  GI50: 1950 nM
  TGI: 4710 nM
EKVX NSCLC
  GI50: 1650 nM
  TGI: 3060 nM
RPMI-8226 leukemia
  GI50: 2160 nM
  TGI: 5390 nM
ACHN renal
  GI50: 1790 nM
  TGI: 3270 nM
LOX IMVI melanoma
  GI50: 1650 nM
  TGI: 3100 nM
NCI-H226 lung
  GI50: 1600 nM
  TGI: 3210 nM
UACC-62 melanoma
  GI50: 1670 nM
  TGI: 3290 nM
OVCAR-3 ovarian
  GI50: 1840 nM
  TGI: 3390 nM
U251 CNS
  GI50: 1720 nM
  TGI: 3360 nM
SN12C renal
  GI50: 1730 nM
  TGI: 3120 nM
MOLT-4 leukemia
  GI50: 2390 nM
  TGI: 5560 nM
HS 578T breast
  GI50: 2050 nM
  TGI: 5370 nM
UACC-257 melanoma
  GI50: 1680 nM
  TGI: 3150 nM
OVCAR-8 ovarian
  GI50: 1720 nM
  TGI: 3140 nM
OVCAR-4 ovarian
  GI50: 1740 nM
  TGI: 3300 nM
NCI-H23 lung
  GI50: 1660 nM
  TGI: 3200 nM
T-47D breast
  GI50: 2000 nM
  TGI: 5170 nM
IGROV1 ovarian
  GI50: 1760 nM
  TGI: 3170 nM
SK-MEL-28 melanoma
  GI50: 1760 nM
  TGI: 3270 nM
CAKI-1 renal
  GI50: 1690 nM
  TGI: 3110 nM
HT29 colon
  GI50: 2190 nM
  TGI: 5480 nM
NCI-H460 lung
  GI50: 1980 nM
  TGI: 4370 nM
BT-549 breast
  GI50: 1640 nM
  TGI: 3070 nM
SNB-19 CNS
  GI50: 1670 nM
  TGI: 3100 nM
SK-MEL-5 melanoma
  GI50: 1630 nM
  TGI: 3060 nM
UO-31 renal
  GI50: 1620 nM
  TGI: 2970 nM
PC-3 prostate
  GI50: 1830 nM
  TGI: 3620 nM
M14 melanoma
  GI50: 1690 nM
  TGI: 3190 nM
SF-539 CNS
  GI50: 1670 nM
  TGI: 3040 nM
HOP-92 NSCLC
  GI50: 1810 nM
  TGI: 4230 nM
HCT-116 colon
  GI50: 1900 nM
  TGI: 3730 nM
MDA-MB-468 breast
  GI50: 1750 nM
  TGI: 3320 nM
NCI-H522 lung
  GI50: 1560 nM
  TGI: 3030 nM
KM12 colon
  GI50: 1830 nM
  TGI: 3390 nM
COLO 205 colon
  GI50: 1950 nM
  TGI: 4360 nM
A498 renal
  GI50: 2310 nM
  TGI: 6730 nM
SW-620 colon
  GI50: 1790 nM
  TGI: 3370 nM

## O=[N+]([O-])c1cc([N+](=O)[O-])c(NN=C(c2ccc(O)cc2)c2ccc(O)cc2)cc1Cl
MDA-MB-468 breast
  GI50: 247 nM
  TGI: 550 nM

## O=C(/C=C/c1c(-c2ccccc2)[nH]c2ccccc12)S(=O)(=O)c1ccccc1
MDA-MB-468 breast
  GI50: 1980 nM
  TGI: 8750 nM
